Laboratory results published in patent publication US8846750B2, “Pharmaceutical and food compositions for preventing or treating diabetes or obesity” (Korea Ocean Research and Development Institute, priority 2010, dated 2014).

Legend:
Type in all cases: in vivo
[1] = test system: db/db mice (type 2 diabetic model animals); experiment: Blood glucose level following 6 hours of fasting after intraperitoneal administration; details: 10 mg/kg intraperitoneally daily; for increase in the fasting blood glucose level compared with control group: days 0-21, 6 hours of fasting; for average blood glucose level after 6 hours of fasting: db/db mice
Description: In order to more accurately measure the antidiabetic effect of sodium lobarate, 200 μl of PBS for a control group and 10 mg/kg of sodium lobarate (PTP-1b activity inhibitory compound) for a test group was administered, respectively, intraperitoneally daily to 7-week-old male db/db mice (type 2 diabetic model animals, C57/BLKS/J-db/db, the Korea Research Institute of Bioscience and Biotechnology), and the blood glucose levels of the animals were measured twice a week. Herein, measurement of the blood glucose level was performed after 6 hours of fasting after intraperitoneal injection of sodium lobarate.
In order to more accurately measure the antidiabetic effect of Lobarin, 200 μl of PBS for a control group and 10 mg/kg of Lobarin for a test group was administered, respectively, intraperitoneally daily to 7-week-old male db/db mice (type 2 diabetic model animals, C57/BLKS/J-db/db, the Korea Research Institute of Bioscience and Biotechnology), and the blood glucose levels of the animals were measured twice a week. Herein, measurement of the blood glucose levels was performed after 6 hours of fasting after intraperitoneal injection of Lobarin.
In order to more accurately measure the antidiabetic effect of Lobarstin, 200 μl of PBS for a control group and 10 mg/kg of Lobarstin for a test group was administered intraperitoneally daily to 7-week-old male db/db mice (type 2 diabetic model animals, C57/BLKS/J-db/db, the Korea Research Institute of Bioscience and Biotechnology), and the blood glucose levels of the animals were measured twice a week. Herein, measurement of the blood glucose levels was performed after 6 hours of fasting after intraperitoneal injection of Lobarstin.

[2] = test system: db/db mice (type 2 diabetic model animals); experiment: Intraperitoneal glucose tolerance test (IPGTT) 28 days after intraperitoneal administration; details: 10 mg/kg i.p. for 28 days; for blood glucose level after injection of glucose (IPGTT): fasted 16 hours; for course of blood glucose level in IPGTT: versus control group
Description: An intraperitoneal glucose tolerance test (IPGTT) in the animal model of sodium lobarate was performed in the following manner.
To 7-week-old male db/db mice (type 2 diabetic model animals, C57/BLKS/J-db/db, the Korea Research Institute of Bioscience and Biotechnology), physiological saline for a control group and 10 mg/kg of sodium lobarate for a test group was injected, respectively, intraperitoneally every day for 28 days. Then, the animals were fasted for 16 hours without administering physiological saline or sodium lobarate, after which glucose (500 mg/Ml; injection volume of […]) was injected intraperitoneally into the animals. 0, 15, 30, 60, 90 and 120 min after injection of glucose, blood was sampled from the tail vein, and the changes in the blood glucose levels of the samples were measured. […]
(§1) To 7-week-old male db/db mice (type 2 diabetic model animals, C57/BLKS/J-db/db, the Korea Research Institute of Bioscience and Biotechnology), 20% DMSO for a control group and 10 mg/kg of Lobarin for a test group was injected, respectively, intraperitoneally every day for 28 days. Then, the animals were fasted for 16 hours without administering 20% DMSO or Lobarin for each group, after which glucose (500 mg/Ml; injection volume of 200 μl) was injected intraperitoneally into the animals. 0, 15, 30, 60, 90 and 120 min after injection of glucose, blood was sampled from the tail vein, and the changes in the blood glucose levels of the samples were measured.
as §1, with “Lobarstin” for “Lobarin”, “physiological saline and Lobarstin,” for “20% DMSO or Lobarin for each group,”

[3] = test system: db/db mice (type 2 diabetic model animals); experiment: Change in blood glucose level after intraperitoneal administration; details: 10 mg/kg intraperitoneally daily; for increase in the blood glucose level compared with control group: days 0-21; for average blood glucose level: db/db mice
Description: Based on pre-tests, effectiveness tests and toxicity tests for sodium lobarate, dose (expressed as test compound amount (mg)/test animal's weight (kg)) was determined. To 7-week-old male db/db mice (type 2 diabetic model animals, C57/BLKS/J-db/db, the Korea Research Institute of Bioscience and Biotechnology), 200 μl of PBS for a control group and 10 mg/kg of sodium lobarate (PTP-1b activity inhibitory compound) for a test group was administered, respectively, intraperitoneally daily, and the blood glucose levels of the animals were measured twice a week.
Specifically, sodium lobarate (PTP-1b activity inhibitory compound) was administered by intraperitoneal injection to 7-week-old male db/db mice (type 2 diabetic model animals, C57/BLKS/J-db/db, the Korea Research Institute of Bioscience and Biotechnology), and the change in the blood glucose level of the animals was measured.
Based on pre-tests, effectiveness tests and toxicity tests for Lobarin, dose (expressed as test compound amount (mg)/test animal's weight (kg)) was determined. To 7-week-old male db/db mice (type 2 diabetic model animals, C57/BLKS/J-db/db, the Korea Research Institute of Bioscience and Biotechnology), 200 μl of PBS for a control group and 10 mg/kg of Lobarin for a test group was administered, respectively, intraperitoneally daily, and the blood glucose levels of the animals were measured twice a week.
Specifically, Lobarin was administered by intraperitoneal injection to 7-week-old male db/db mice (type 2 diabetic model animals, C57/BLKS/J-db/db, the Korea Research Institute of Bioscience and Biotechnology), and the change in blood glucose level of the animals was measured.
Based on pre-tests, effectiveness tests and toxicity tests for Lobarstin, dose (expressed as test compound amount (mg)/test animal's weight (kg)) was determined. To 7-week-old male db/db mice (type 2 diabetic model animals, C57/BLKS/J-db/db, the Korea Research Institute of Bioscience and Biotechnology), 200 μl of PBS for a control group and 10 mg/kg of Lobarstin for a test group was administered, respectively, intraperitoneally daily, and the blood glucose levels of the animals were measured twice a week.
Specifically, Lobarstin was administered by intraperitoneal injection to 7-week-old male db/db mice (type 2 diabetic model animals, C57/BLKS/J-db/db, the Korea Research Institute of Bioscience and Biotechnology), and the change in blood glucose level of the animals was measured.

In the case of `CCCCCc1c(Oc2cc(OC)cc3c2C(=O)OC3(O)CCCC)c(O)cc(O)c1C(=O)O` (stereo not drawn) [Lobarin], the “increase in the fasting blood glucose level compared with control group” value [1] is reported as “less than that in the control group”, the “average blood glucose level after 6 hours of fasting” value ([1]; day 0) is reported as 152 mg/dL and the “average blood glucose level after 6 hours of fasting” value ([1]; day 3) is reported as 141 mg/dL. For the same compound, the “average blood glucose level after 6 hours of fasting” value ([1]; day 7) was 155 mg/dL, the “average blood glucose level after 6 hours of fasting” value ([1]; day 10) was 198 mg/dL and the “average blood glucose level after 6 hours of fasting” value ([1]; day 14) was 261 mg/dL. The “average blood glucose level after 6 hours of fasting” value ([1]; day 17) was 287 mg/dL, the “average blood glucose level after 6 hours of fasting” value ([1]; day 21) was 340 mg/dL and the “blood glucose level after injection of glucose (IPGTT)” value (“blood glucose level after injection” for short) ([2]; 0 min) was 153 mg/dL. The “course of blood glucose level in IPGTT” value [2] was “a low increase and a fast decrease in the blood glucose level”, the “blood glucose level after injection” value ([2]; 15 min) was 358 mg/dL and the “blood glucose level after injection” value ([2]; 30 min) was 436 mg/dL. The “blood glucose level after injection” value ([2]; 60 min) was 390 mg/dL, the “blood glucose level after injection” value ([2]; 90 min) was 335 mg/dL and the “blood glucose level after injection” value ([2]; 120 min) was 290 mg/dL. The “increase in the blood glucose level compared with control group” value (from here on “increase in the blood glucose level”) [3] was “less than that in the control group”, the “average blood glucose level” value ([3]; day 0) was 267 mg/dL and the “average blood glucose level” value ([3]; day 3) was 278 mg/dL. The “average blood glucose level” value ([3]; day 7) was 298 mg/dL, the “average blood glucose level” value ([3]; day 10) was 315 mg/dL and the “average blood glucose level” value ([3]; day 14) was 352 mg/dL. The “average blood glucose level” value ([3]; day 17) was 379 mg/dL and the “average blood glucose level” value ([3]; day 21) was 425 mg/dL.

For `CCC/C=C1/OC(=O)c2c(Oc3c(O)cc(O)c(C(=O)O)c3CCCCC)cc(OC)cc21` [Lobarstin], the “increase in the fasting blood glucose level compared with control group” value [1] was “less than that in the control group”, the “average blood glucose level after 6 hours of fasting” value ([1]; day 0) was 134 mg/dL and the “average blood glucose level after 6 hours of fasting” value ([1]; day 7) was 182 mg/dL. For the same compound, the “average blood glucose level after 6 hours of fasting” value ([1]; day 14) was 162 mg/dL, the “average blood glucose level after 6 hours of fasting” value ([1]; day 21) was 204 mg/dL and the “blood glucose level after injection” value ([2]; 0 min) was 152 mg/dL. The “course of blood glucose level in IPGTT” value [2] was “a low increase and a fast decrease in the blood glucose level”, the “blood glucose level after injection” value ([2]; 15 min) was 229 mg/dL and the “blood glucose level after injection” value ([2]; 30 min) was 307 mg/dL. For the same compound, the “blood glucose level after injection” value ([2]; 60 min) was 205 mg/dL, the “blood glucose level after injection” value ([2]; 90 min) was 162 mg/dL and the “blood glucose level after injection” value ([2]; 120 min) was 147 mg/dL. The “increase in the blood glucose level” value [3] was “less than that in the control group”, the “average blood glucose level” value ([3]; day 0) was 299 mg/dL and the “average blood glucose level” value ([3]; day 7) was 259 mg/dL. The “average blood glucose level” value ([3]; day 14) was 267 mg/dL and the “average blood glucose level” value ([3]; day 21) was 242 mg/dL.

With `CCCCCc1c2c(cc(O)c1C(=O)[O-])OC(=O)c1c(cc(OC)cc1C(=O)CCCC)O2.[Na+]` [sodium lobarate] the “increase in the fasting blood glucose level compared with control group” value [1] was “less than that in the control group”, the “average blood glucose level after 6 hours of fasting” value ([1]; day 0) was 141 mg/dL and the “average blood glucose level after 6 hours of fasting” value ([1]; day 3) was 142 mg/dL. The “average blood glucose level after 6 hours of fasting” value ([1]; day 7) was 185 mg/dL, the “average blood glucose level after 6 hours of fasting” value ([1]; day 10) was 206 mg/dL and the “average blood glucose level after 6 hours of fasting” value ([1]; day 14) was 232 mg/dL. For the same compound, the “average blood glucose level after 6 hours of fasting” value ([1]; day 17) was 236 mg/dL, the “average blood glucose level after 6 hours of fasting” value ([1]; day 21) was 313 mg/dL and the “blood glucose level after injection” value ([2]; 0 min) was 153 mg/dL. The “course of blood glucose level in IPGTT” value [2] was “a low increase and a fast decrease in the blood glucose level”, the “blood glucose level after injection” value ([2]; 15 min) was 291 mg/dL and the “blood glucose level after injection” value ([2]; 30 min) was 361 mg/dL. The “blood glucose level after injection” value ([2]; 60 min) was 385 mg/dL, the “blood glucose level after injection” value ([2]; 90 min) was 335 mg/dL and the “blood glucose level after injection” value ([2]; 120 min) was 290 mg/dL. The “increase in the blood glucose level” value [3] was “less than that in the control group”, the “average blood glucose level” value ([3]; day 0) was 267 mg/dL and the “average blood glucose level” value ([3]; day 3) was 276 mg/dL. For the same compound, the “average blood glucose level” value ([3]; day 7) was 378 mg/dL, the “average blood glucose level” value ([3]; day 10) was 378 mg/dL and the “average blood glucose level” value ([3]; day 14) was 407 mg/dL. For the same compound, the “average blood glucose level” value ([3]; day 17) was 415 mg/dL and the “average blood glucose level” value ([3]; day 21) was 459 mg/dL.
